In the supplement of paper PMC8612539:

Legend:
Mannheimia haemolytica = test: minimum inhibitory concentration (MIC)
Protocol: (§1)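 Broth microdilution MIC (Sensititre BOPO7F bovine plate, CLSI methods) of 19 antimicrobials against field isolates of P. multocida, M. haemolytica, H. somni (deep nasopharyngeal swabs) and E. coli, Enterococcus spp. (rectal swabs) from weaned dairy heifers. Incubation 16-24 h at 35 C. MIC is the lowest concentration preventing visible growth. Values with <= or > lie at the tested range limits. Trimethoprim-sulfamethoxazole is given as the trimethoprim component of a 1:19 mixture.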

Enterococcus spp. = test: minimum inhibitory concentration (MIC)
Protocol: as §1

COc1cc(NS(=O)(=O)c2ccc(N)cc2)nc(OC)n1 [sulfadimethoxine]
minimum inhibitory concentration [mg/L]
Conditions | Enterococcus spp. | Mannheimia haemolytica
isolate (source animal id): 2 | > 256 | –
isolate (source animal id): 8 | – | > 256
isolate (source animal id): 13 | – | > 256
isolate (source animal id): 18 | – | > 256
isolate (source animal id): 21 | – | > 256
isolate (source animal id): 25 | – | > 256
isolate (source animal id): 27 | – | > 256
isolate (source animal id): 28 | – | ≤ 256
isolate (source animal id): 30 | – | > 256
isolate (source animal id): 31 | – | ≤ 256
isolate (source animal id): 32 | – | > 256
isolate (source animal id): 34 | – | > 256
isolate (source animal id): 35 | > 256 | –
isolate (source animal id): 36 | – | > 256
isolate (source animal id): 37 | – | > 256
isolate (source animal id): 40 | – | > 256
isolate (source animal id): 41 | – | > 256
isolate (source animal id): 42 | > 256 | –
isolate (source animal id): 43 | – | > 256
isolate (source animal id): 44 | > 256 | –
isolate (source animal id): 46 | – | > 256
isolate (source animal id): 49 | – | > 256
isolate (source animal id): 50 | – | > 256
isolate (source animal id): 51 | – | > 256
isolate (source animal id): 52 | – | > 256
isolate (source animal id): 53 | – | > 256
isolate (source animal id): 55 | – | > 256
isolate (source animal id): 56 | – | > 256
isolate (source animal id): 57 | – | > 256
isolate (source animal id): 79 | > 256 | –
isolate (source animal id): 88 | > 256 | –
isolate (source animal id): 91 | > 256 | –
isolate (source animal id): 92 | > 256 | –
isolate (source animal id): 100 | – | > 256
isolate (source animal id): 103 | – | > 256
isolate (source animal id): 107 | – | > 256
isolate (source animal id): 108 | – | > 256
isolate (source animal id): 111 | > 256 | –
isolate (source animal id): 112 | – | > 256
isolate (source animal id): 113 | – | > 256
isolate (source animal id): 121 | – | > 256
isolate (source animal id): 122 | > 256 | > 256
isolate (source animal id): 123 | > 256 | > 256
isolate (source animal id): 126 | – | > 256
isolate (source animal id): 133 | > 256 | > 256
isolate (source animal id): 135 | – | > 256
isolate (source animal id): 138 | – | > 256
isolate (source animal id): 141 | – | > 256
isolate (source animal id): 142 | – | > 256
isolate (source animal id): 145 | – | > 256
isolate (source animal id): 149 | – | ≤ 256
isolate (source animal id): 151 | – | ≤ 256
isolate (source animal id): 152 | – | ≤ 256
isolate (source animal id): 154 | – | ≤ 256
isolate (source animal id): 158 | > 256 | –
isolate (source animal id): 159 | – | > 256
isolate (source animal id): 162 | – | > 256
isolate (source animal id): 168 | > 256 | –
isolate (source animal id): 169 | > 256 | –
isolate (source animal id): 170 | – | > 256
isolate (source animal id): 171 | > 256 | > 256
isolate (source animal id): 172 | – | > 256
isolate (source animal id): 173 | – | > 256
isolate (source animal id): 175 | > 256 | –
isolate (source animal id): 177 | > 256 | –
isolate (source animal id): 179 | – | > 256
isolate (source animal id): 180 | – | > 256
isolate (source animal id): 181 | > 256 | –
isolate (source animal id): 182 | > 256 | –
isolate (source animal id): 183 | > 256 | > 256
isolate (source animal id): 186 | – | > 256
isolate (source animal id): 187 | > 256 | > 256
isolate (source animal id): 188 | – | > 256
isolate (source animal id): 190 | > 256 | > 256
isolate (source animal id): 191 | – | > 256
isolate (source animal id): 192 | – | > 256
isolate (source animal id): 194 | > 256 | –
isolate (source animal id): 195 | > 256 | –
isolate (source animal id): 197 | > 256 | –
isolate (source animal id): 201 | – | > 256
isolate (source animal id): 202 | – | > 256
isolate (source animal id): 209 | – | > 256
isolate (source animal id): 211 | > 256 | ≤ 256
isolate (source animal id): 214 | > 256 | –
isolate (source animal id): 220 | – | > 256
isolate (source animal id): 221 | – | > 256
isolate (source animal id): 222 | > 256 | –
isolate (source animal id): 223 | > 256 | > 256
isolate (source animal id): 228 | > 256 | –
isolate (source animal id): 230 | > 256 | –
isolate (source animal id): 233 | – | > 256
isolate (source animal id): 235 | > 256 | –
isolate (source animal id): 236 | > 256 | –
isolate (source animal id): 237 | – | ≤ 256
isolate (source animal id): 239 | > 256 | –
isolate (source animal id): 241 | > 256 | > 256
isolate (source animal id): 244 | > 256 | –
isolate (source animal id): 246 | > 256 | –
isolate (source animal id): 247 | > 256 | –
isolate (source animal id): 250 | > 256 | –
isolate (source animal id): 252 | > 256 | > 256
isolate (source animal id): 253 | – | > 256
isolate (source animal id): 259 | – | > 256
isolate (source animal id): 260 | – | > 256
isolate (source animal id): 262 | – | > 256
isolate (source animal id): 268 | > 256 | –
isolate (source animal id): 282 | > 256 | > 256
isolate (source animal id): 285 | > 256 | –
isolate (source animal id): 287 | – | > 256
isolate (source animal id): 288 | – | > 256
isolate (source animal id): 289 | > 256 | –
isolate (source animal id): 290 | > 256 | –
isolate (source animal id): 291 | – | ≤ 256
isolate (source animal id): 293 | – | > 256
isolate (source animal id): 296 | > 256 | –
isolate (source animal id): 298 | > 256 | > 256
isolate (source animal id): 299 | – | > 256
isolate (source animal id): 300 | – | ≤ 256
isolate (source animal id): 301 | > 256 | –
isolate (source animal id): 302 | – | > 256
isolate (source animal id): 304 | – | > 256
isolate (source animal id): 306 | – | > 256
isolate (source animal id): 308 | – | ≤ 256
isolate (source animal id): 309 | – | ≤ 256
isolate (source animal id): 310 | > 256 | –
isolate (source animal id): 313 | – | > 256
isolate (source animal id): 318 | – | > 256
isolate (source animal id): 320 | > 256 | ≤ 256
isolate (source animal id): 321 | – | > 256
isolate (source animal id): 323 | – | > 256
isolate (source animal id): 324 | – | > 256
isolate (source animal id): 326 | – | > 256
isolate (source animal id): 328 | – | > 256
isolate (source animal id): 329 | – | > 256
isolate (source animal id): 331 | > 256 | –
isolate (source animal id): 333 | > 256 | > 256
isolate (source animal id): 335 | – | > 256
isolate (source animal id): 338 | – | > 256
isolate (source animal id): 341 | > 256 | –
